According to patent US9808528B2, “Protein-polymer-drug conjugates and methods of using same” (priority 2014, dated 2017):
Where “and” joins values, the source holds several entries; their conditions need not be identical. Equal values may be shown once. Where a SMILES comes first, the peptide text is derived from it. [ ]: non-standard residue; d: D form. The star is where a group is joined. Dolaproine = CO[C@@H]([C@@H]1CCCN1)[C@@H](C)C(=O)O; Dil = CC[C@H](C)[C@H](NC)[C@@H](CC(=O)O)OC; NMe2Val = CC(C)[C@@H](C(=O)*)N(C)C; NH(3-hydroxypropyl) = OCCCN*

Key:
NCI-N87 = experiment: Cytotoxicity assay (CellTiter-Glo); assay type: cell-based; conditions: HER2 molecules per cell 700,000; Her2 expression 3+; 72 hours or 6 days
Method: (§1) For the cytotoxicity assay, cells were seeded at a density of 3000 cells per well in 96 well plates and allowed to attach during overnight incubation at 37° C. in the presence of 5% CO2.

SKOV3 = experiment: Cytotoxicity assay (CellTiter-Glo); assay type: cell-based, human; conditions: HER2 molecules per cell 220,000; Her2 expression 3+; 72 hours or 6 days
Method: (§2) OVCAR3 (ovarian adenocarcinoma, not amplified, ATCC, Cat# HTB-161) was cultured in RPMI medium with 20% FBS. […] MKN-45 III (human gastric adenocarcinoma cell line, not amplified, DSMZ, Braunschweig, Germany, Cat.# ACC409) was cultured in RPMI-1640 Medium, (ATCC, Cat#30-2001). SKOV3 (human ovary adenocarcinoma cell line ATCC, Cat.# HTB-77), was cultured in McCoy's 5a Medium.
as §1

JIMT-1 cells = experiment: Tumor growth response, JIMT-1 xenograft; assay type: in vivo, mice
Method: Female CB-17 SCID mice were inoculated subcutaneously with BT474 tumor fragments (n=10 for each group) or JIMT-1 cells (n=10 for each group) or NCI-N87 cells (n=10 for each group). […] Test compounds or vehicle were dosed IV as a single dose on day 1. Tumor size was measured at the times indicated in FIGS. 1 to 6 using digital calipers. Tumor volume was calculated and was used to determine the delay in tumor growth. Mice were sacrificed when tumors reached a size of 800 to 1500 mm^3. Tumor volumes are reported as the mean±SEM (“standard error of mean”) for each group.

CAMA-1 = experiment: Cytotoxicity assay (CellTiter-Glo); assay type: cell-based, human; conditions: HER2 molecules per cell 50,000; Her2 expression 1+; 72 hours or 6 days
Method: (§3) MDA-MB-175-VII (human breast cancer cell line, not amplified, ATCC, Cat.# HTB-25), was cultured in Leibovitz's L-15 Medium with 20% FBS. CAMA-1 (human breast cancer cell line, not amplified, ATCC, Cat.# HTB-21), was cultured in 90% ATCC-formulated Eagle's Minimum Essential Medium.
as §1

KATOIII = experiment: Cytotoxicity assay (CellTiter-Glo); assay type: cell-based, human; conditions: HER2 molecules per cell 19,000; Her2 expression 1+; 72 hours or 6 days
Method: (§4) A549 (human lung carcinoma cell line, not amplified, ATCC, Cat# CCL-185) was cultured in F12K Medium. […] NCI-H460 (human lung carcinoma cell line, not amplified, ATCC, Cat.# HTB-177) was cultured in RPMI-1640 Medium, (ATCC, Cat.#30-2001). SHP-77 (human small cell lung cancer cell line, not amplified, ATCC, Cat.# CRL-2195) was cultured in RPMI-1640 Medium, (ATCC, Cat#30-2001).
as §1

NCI-H460 = experiment: Cytotoxicity assay (CellTiter-Glo); assay type: cell-based, human; conditions: HER2 molecules per cell 4,000; Her2 expression 1+; 72 hours or 6 days
Method: as §4, §1

hErbB2 = hErbB2 (Homo sapiens, UniProt P04626); experiment: Ligand binding studies by BIAcore surface plasmon resonance (SPR); conditions: 25° C.; immobilized hErbB2; BioRad ProteOn XPR36
Method: The kinetic binding of the PBRM-polymer-drug conjugate to an immobilized receptor is determined by BIAcore SPR. The binding constants for the PBRM in the PBRM-polymer-drug conjugate and PBRM alone can be determined using standard BIAcore procedures.
The kinetic binding of the PBRM-polymer-drug conjugate to an immobilized receptor was determined by BIAcore SPR.

HCC1187 = experiment: Cytotoxicity assay (CellTiter-Glo); assay type: cell-based, human; conditions: HER2 molecules per cell 38,000; Her2 expression 2+; 72 hours or 6 days
Method: (§5) ZR75-1 (human breast cancer cell line, not amplified, ATCC, Cat.# CRL-1500), was cultured in RPMI-1640 Medium. HCC1187 (human breast cancer cell line, not amplified, ATCC, Cat.# CRL-2322), was cultured in RPMI-1640 Medium. HCC38 (human breast cancer cell line, not amplified, ATCC, Cat.# CRL-2314), was cultured in RPMI-1640 Medium. T47D (human breast cancer cell line, not amplified, ATCC, Cat.# HTB-133), was cultured in RPMI-1640 Medium. MDA-MB-231 (human breast cancer cell line, not amplified, ATCC, Cat.# HTB-26), was cultured in DMEM Medium.
as §1

A549 = experiment: Cytotoxicity assay (CellTiter-Glo); assay type: cell-based, human; conditions: HER2 molecules per cell 6,000; Her2 expression 1+; 72 hours or 6 days
Method: as §4, §1

MKN45 = experiment: Cytotoxicity assay (CellTiter-Glo); assay type: cell-based, human; conditions: HER2 molecules per cell 16,000; Her2 expression 1+; 72 hours or 6 days
Method: as §2, §1

T47D = experiment: Cytotoxicity assay (CellTiter-Glo); assay type: cell-based, human; conditions: HER2 molecules per cell 20,000; Her2 expression 1+; 72 hours or 6 days
Method: as §5, §1

MCF7 = experiment: Cell viability assay (Cell Titer-Glo); assay type: cell-based; conditions: 72 h incubation; HER2 low expressing cells; AF-HPA as toxin equivalents
Method: (§6) PBRM-polymer-drug conjugates were evaluated for their antiproliferation properties in tumor cell lines in vitro using Cell Titer-Glo (Promega Corp). Cells were plated in black walled 96-well plate and allowed to adhere overnight at 37° C. in a humidified atmosphere of 5% CO2. SKBR3, BT474, NCI-N87 cells (HER2 expressing cells), MCF7 cells (HER2 low expressing levels cells) and JIMT1 cells (HER2 medium expression level cells) were plated at a density of 5,000 cells per well. The next day the medium was replaced with 50 μL fresh medium and 50 μL of 2× stocks of PBRM-polymer-drug conjugate, drug polymer conjugate or drug were added to appropriate wells, mixed and incubated for 72 h. Cell Titer-Glo reagent was added to the wells at room temperature and the luminescent signal was measured after 10 min using a SpectraMax M5 plate reader (Molecular Devices). Dose response curves were generated using SoftMax Pro software. IC50 values were determined from four-parameter curve fitting.

TOV21G = experiment: Cytotoxicity assay (CellTiter-Glo); assay type: cell-based, human; conditions: HER2 molecules per cell 12,000; Her2 expression 1+; 72 hours or 6 days
Method: as §2, §1

SKBR3 = experiment: Cell viability assay (Cell Titer-Glo); assay type: cell-based; conditions: 72 h incubation; AF-HPA as toxin equivalents
Method: as §6

BT474 [1] = experiment: Cytotoxicity assay (CellTiter-Glo); assay type: cell-based, human; conditions: HER2 molecules per cell 860,000; Her2 expression 3+; 72 hours or 6 days
Method: as §2, §1

HCC38 = experiment: Cytotoxicity assay (CellTiter-Glo); assay type: cell-based, human; conditions: HER2 molecules per cell 36,000; Her2 expression 2+; 72 hours or 6 days
Method: as §5, §1

JIMT-1 = conditions: read-out: IC50 JIMT-1; HER2 molecules per cell 80,000; Her2 expression 2+; 72 hours or 6 days
JIMT1 = experiment: Cell viability assay (Cell Titer-Glo); assay type: cell-based; conditions: 72 h incubation; HER2 medium expression level cells; AF-HPA as toxin equivalents
Method: as §6

NCI-H522 = experiment: Cytotoxicity assay (CellTiter-Glo); assay type: cell-based; conditions: HER2 molecules per cell 25,000; Her2 expression 1+; 72 hours or 6 days
Method: (§7) NCI-H1581 (non-small cell lung carcinoma medium expressing cell line, not amplified, ATCC, Cat.# CRL-5878) cells were cultured in DMEM:F12 medium (ATCC, Cat#30-2006). […] CALU3 (human lung adenocarcinoma cell line, ATCC, Cat# HTB-55) was cultured in ATCC-formulated Eagle's Minimum Essential Medium. […] NCI-H2122 (human lung adenocarcinoma cell line, not amplified, ATCC, Cat# CRL-5985) was cultured in RPMI-1640 Medium, (ATCC, Cat#30-2001).
as §1

CALU3 = experiment: Cytotoxicity assay (CellTiter-Glo); assay type: cell-based, human; conditions: HER2 molecules per cell 330,000; Her2 expression 3+; 72 hours or 6 days
Method: as §7, §1

OVCAR3 = experiment: Cytotoxicity assay (CellTiter-Glo); assay type: cell-based; conditions: HER2 molecules per cell 7,200; Her2 expression 1+; 72 hours or 6 days
Method: as §2, §1

ZR75-1 = experiment: Cytotoxicity assay (CellTiter-Glo); assay type: cell-based, human; conditions: HER2 molecules per cell 40,000; Her2 expression 1+; 72 hours or 6 days
Method: as §5, §1

SNU5 = experiment: Cytotoxicity assay (CellTiter-Glo); assay type: cell-based; conditions: HER2 molecules per cell 22,000; Her2 expression 1+; 72 hours or 6 days
Method: as §4, §1

NCI-H2170 = experiment: Cytotoxicity assay (CellTiter-Glo); assay type: cell-based; conditions: HER2 molecules per cell 660,000; Her2 expression 3+; 72 hours or 6 days
Method: as §7, §1

BT474 [2] = experiment: Cell viability assay (Cell Titer-Glo); assay type: cell-based, human; conditions: 72 h incubation; AF-HPA as toxin equivalents
Method: as §6

MDA-MB-175VII = experiment: Cytotoxicity assay (CellTiter-Glo); assay type: cell-based, human; conditions: read-out: IC50 MDA-MB-175VII; HER2 molecules per cell 51,000; Her2 expression 1+; 72 hours or 6 days
Method: as §3, §1

NCI-H1581 = experiment: Cytotoxicity assay (CellTiter-Glo); assay type: cell-based; conditions: HER2 molecules per cell 13,000; Her2 expression 1+; 72 hours or 6 days
Method: as §7, §1

N87 = experiment: Cell viability assay (Cell Titer-Glo); assay type: cell-based; conditions: 72 h incubation; AF-HPA as toxin equivalents
Method: as §6

SHP-77 = experiment: Cytotoxicity assay (CellTiter-Glo); assay type: cell-based, human; conditions: HER2 molecules per cell 0; 72 hours or 6 days
Method: as §4, §1

MDA-MB-361 = experiment: Cytotoxicity assay (CellTiter-Glo); assay type: cell-based, human; conditions: HER2 molecules per cell 135,000; Her2 expression 2+; 72 hours or 6 days
Method: as §3, §1

MDA-MB-231 = experiment: Cytotoxicity assay (CellTiter-Glo); assay type: cell-based, human; conditions: HER2 molecules per cell 5400; Her2 expression 1+; 72 hours or 6 days
Method: as §5, §1

NCI-H2122 = experiment: Cytotoxicity assay (CellTiter-Glo); assay type: cell-based, human; conditions: HER2 molecules per cell 12,000; Her2 expression 1+; 72 hours or 6 days
Method: as §7, §1

MDA-MB-453 = experiment: Cytotoxicity assay (CellTiter-Glo); assay type: cell-based; conditions: HER2 molecules per cell 125,000; Her2 expression 2+; 72 hours or 6 days
HL-60 = experiment: Cell viability assay (Cell Titer-Glo); assay type: cell-based; conditions: for IC50: CD33 expressing cells, 72 h or 6 days incubation
Method: Dose response curves were generated using SoftMax Pro software. IC50 values were determined from four-parameter curve fitting.
CD33 expressing cells HL-60 were passed at a density of 5,000 cells per well and treated with PBRM-polymer-drug conjugate on the same day. After 72 h or 6 days incubation, the cells were analyzed using the same procedure described above.

[3] = Mouse tissue distribution after administration of PBRM-polymer-drug conjugates
Method: To determine the concentration of the free drug in the sample, the acidified sample was treated with acetonitrile. The free drug was extracted from the supernatant and analyzed by LC-MS/MS.
At 48 hours post administration, the mice were sacrificed and the blood was collected by terminal cardiac.

HL-60 cells = experiment: Tumor growth response, HL-60 xenograft; assay type: in vivo, mice
Method: Female NCr nu/nu mice were inoculated subcutaneously with HL-60 cells (n=10 for each group). Test compounds or vehicle were dosed IV as a single dose on day 1. Tumor size was measured at the times indicated in FIGS. 1 to 6 using digital calipers. Tumor volume was calculated and was used to determine the delay in tumor growth. Mice were sacrificed when tumors reached a size of 800 to 1500 mm^3. Tumor volumes are reported as the mean±SEM (“standard error of mean”) for each group.
Female NCr nu/nu mice were inoculated subcutaneously with HL-60 cells (n=10 for each group). Test compounds or vehicle were dosed IV as a single dose on day 1. Tumor size was measured at the times indicated in FIG. 3 using digital calipers. Tumor volume was calculated and was used to determine the delay in tumor growth. Mice were sacrificed when tumors reached a size of 2000 mm^3. Tumor volumes are reported as the mean±SEM for each group.

ado-trastuzumab emtansine [Kadcyla]
IC50 (NCI-N87): 0.3 nM
IC50 (SKOV3): 5.6 nM
tumor volume response (in words), FIG. 4A (JIMT-1 cells; single IV dose day 1, Example 14 at 2, 0.67 and 0.3 mg/kg, trastuzumab 20 mg/kg, Kadcyla 20 mg/kg): increase of tumor volume
tumor volume response (in words), FIG. 2 (JIMT-1 cells; single IV dose day 1, conjugates […], trastuzumab 10 mg/kg, Kadcyla 10 mg/kg): increase of tumor volume
IC50 (CAMA-1): 7.8 nM
IC50 (KATOIII): > 100 nM
IC50 (NCI-H460): 68 nM
ka (association or affinity rate constant) (hErbB2): 4.61 ± 0.2 × 10^5 M^−1s^−1
kd (dissociation rate constant) (hErbB2): 3.17 ± 0.9 × 10^−5 s^−1
IC50 (HCC1187): 30 nM
IC50 (A549): > 100 nM
IC50 (MKN45): > 100 nM
IC50 (T47D): 82.3 nM
IC50 (MCF7): 38.6 nM
IC50 (TOV21G): > 100 nM
IC50 (SKBR3): 0.23 nM
IC50 (BT474 [1]): 1.3 nM
IC50 (HCC38): > 100 nM
IC50 (JIMT-1): 17.5 nM
IC50 (JIMT1): 18 nM
IC50 (NCI-H522): ~100 nM
IC50 (CALU3): > 100 nM
IC50 (OVCAR3): ~85 nM
IC50 (ZR75-1): > 100 nM
IC50 (SNU5): ~100 nM
IC50 (NCI-H2170): 0.4 nM
IC50 (BT474 [2]): 2.4 nM
IC50 (MDA-MB-175VII): 1.2 nM
IC50 (NCI-H1581): ~100 nM
IC50 (N87): 0.09 nM
IC50 (SHP-77): > 100 nM
IC50 (MDA-MB-361): 0.27 nM and 0.33 nM
IC50 (MDA-MB-231): 27 nM
IC50 (NCI-H2122): 19 nM
IC50 (MDA-MB-453): ~100 nM

CC[C@H](C)[C@@H]([C@@H](CC(=O)N1CCC[C@H]1[C@H](OC)[C@@H](C)C(=O)N[C@@H](Cc1ccccc1)C(=O)NCCCO)OC)N(C)C(=O)[C@@H](NC(=O)[C@H](C(C)C)N(C)C)C(C)C [AF-HPA, Auristatin F-hydroxypropylamide] (NMe2Val-V[Dil][Dolaproine]F-{NH(3-hydroxypropyl)})
IC50 (MCF7): 4.4 nM
IC50 (JIMT1): 0.86 nM
IC50 (HL-60): 4.8 nM
IC50 (BT474 [2]): 1.01 nM
IC50 (N87): 0.42 nM
metabolism of unconjugated AF-HPA in plasma (in words) ([3]; in plasma): not converted to AF
metabolism of released unconjugated AF-HPA in tissue (in words) ([3]; in tissue): further metabolized to AF

Lintuzumab-((EG2-MI (2%)-(10 kDa PHF-BA (30%)-(AF-HPA-Ala (9%)) [Example 8]
antiproliferative activity compared to control conjugate (in words) (HL-60; CD33 expressing cell line HL-60): higher antiproliferative activity
IC50 (HL-60): 0.77 nM
regressions, FIG. 3 (HL-60 cells; 20 mg/kg single IV dose): 100%
tumor free survival on day 44, FIG. 3 (HL-60 cells; 20 mg/kg single IV dose, day 44): 70%
tumor volume response (in words), FIG. 3 (HL-60 cells; single IV dose day 1, 20 mg/kg): reduction of tumor volume

Trastuzumab-((EG2-MI (2%)-(10 kDa PHF-BA (28%)-(AF-HPA-Ala (9%) [Example 18C]
ka (association or affinity rate constant) (hErbB2): 4.25 ± 0.5 × 10^5 M^−1s^−1
kd (dissociation rate constant) (hErbB2): 2.03 ± 0.1 × 10^−5 s^−1
IC50 (MCF7): 3.8 nM
IC50 (SKBR3): 0.02 nM
IC50 (JIMT1): 0.18 nM
IC50 (BT474 [2]): 0.03 nM
IC50 (N87): 0.06 nM

Trastuzumab-((EG2-MI (2.5%)-(10 kDa PHF-BA (28%)-(AF-HPA-Ala (8.4%) [Example 10]
regressions, FIG. 4B (JIMT-1 cells; 2.0 mg/kg single IV dose): 100%
tumor free survival at the end of the study, FIG. 4B (JIMT-1 cells; 2.0 mg/kg single IV dose): all of which remained tumor free survival
tumor volume response (in words), FIG. 4B (JIMT-1 cells; 2 mg/kg single dose or […] weekly for 3 weeks, IV): reduction of tumor volume

Trastuzumab-((EG2-MI (2%)-(10 kDa PHF-BA (28%)-(AF-HPA-Ala (9%) [Example 18B]
ka (association or affinity rate constant) (hErbB2): 3.05 ± 0.2 × 10^5 M^−1s^−1
kd (dissociation rate constant) (hErbB2): 2.46 ± 0.1 × 10^−5 s^−1
IC50 (MCF7): 33 nM
IC50 (SKBR3): 0.01 nM
IC50 (JIMT1): 0.12 nM
IC50 (BT474 [2]): 0.05 nM
IC50 (N87): 0.04 nM

Trastuzumab-((EG2-MI (2%)-(10 kDa PHF-BA (28%)-(AF-HPA-Ala (9%) [Example 17]
ka (association or affinity rate constant) (hErbB2): 8.30 ± 0.2 × 10^5 M^−1s^−1
kd (dissociation rate constant) (hErbB2): 2.32 ± 0.2 × 10^−5 s^−1
IC50 (MCF7): 28.8 nM
IC50 (SKBR3): 0.03 nM
IC50 (JIMT-1): 0.3 nM
IC50 (JIMT1): 0.06 nM
IC50 (BT474 [2]): 0.03 nM
IC50 (N87): 0.43 nM
